Assays:
UV 2237 fibrosarcoma = experiment: Comparative antitumor testing against UV 2237 fibrosarcoma; assay type: in vivo, murine / mice; conditions: p.o. daily × 7, Day 14
From the text: (§1) Mice were inoculated subcutaneously with Sarcoma 180, Meth A fibrosarcoma and UV 2237 fibrosarcoma, respectively at Day 0. The mice were then orally administered with the compounds daily for 7 times from Day 1. The efficacy
(§2) was expressed as therapeutic indices (EDmax /ED50) measured at Day 14 after the tumor inoculation, where EDmax is a dose showing maximum inhibition of tumor growth.

Sarcoma 180 [1] = experiment: Comparative antitumor testing against Sarcoma 180; assay type: in vivo, murine / mice; conditions: p.o. daily × 7, Day 14
From the text: as §1, §2

Meth A fibrosarcoma [2] = experiment: Comparative antitumor testing against Meth A fibrosarcoma; assay type: in vivo, murine / mice; conditions: p.o. daily × 7, Day 14
From the text: as §1, §2

[3] = Fecal observation on Day 8 and toxicity in the comparative Meth A study; conditions: for diarrhea: mouse, in vivo
Experimental: (§3) The comparative study on antitumor activity of a representative compound (Example 3) of the present invention with 5'-deoxy-5-fluorouridine was performed according to a manner analogous to that of the antitumor testing against Meth A fibrosarcoma.

Meth A fibrosarcoma [4] = experiment: Comparative study on antitumor activity against Meth A fibrosarcoma with 5'-deoxy-5-fluorouridine; assay type: in vivo, mice
Experimental: (§4) Meth A fibrosarcoma cells (2×10^5 cells) were implanted subcutaneously into mice (21-22 g). The testing against Meth A fibrosarcoma and the calculation of the percent inhibition of tumor growth were effected according to a manner analogous to that of the testing against Sarcoma 180.
as §3

Lewis lung carcinoma = conditions: mouse, in vivo, po
Experimental: Mice were inoculated subcutaneously with Lewis lung carcinoma (10^6 cells) on day 0.
The compounds were administered daily for 14 times from day 1 by the p.o. route. The effective dose (ED50) at which tumor growth was inhibited by 50%, and toxic doses were determined.

[5] = words, general knowledge; cited from earlier work
in vivo = conditions: mouse, po
Meth A fibrosarcoma [6] = experiment: Antitumor testing against Meth A fibrosarcoma (oral, s.c. implanted); assay type: in vivo, mice; conditions: Mus musculus, read-out: Inhibition of tumor growth; for inhibition in vivo at 1500 µmol/kg: 1.5 mmole/kg/day × 7, p.o.; for inhibition in vivo at 3000 µmol/kg: 3.0 mmole/kg/day × 7, p.o.
Experimental: (§5) Sarcoma 180 cells (2×10^6 cells) were implanted subcutaneously into mice (20-22 g) on day 0. The compounds of the present invention were administered daily from day 1 through 7 orally. The animals were sacrificed on day 14 and tumors were excised and weighed. The percent inhibition of tumor growth given in Table 1 below was calculated from the formula:
(§6) T=weight of the tumors from the treated group, C=weight of the tumors from the control group.
as §4

Sarcoma 180 [7] = experiment: Antitumor testing against Sarcoma 180 (oral, s.c. implanted); assay type: in vivo, mice; conditions: Mus musculus, 336 h, day 14, read-out: Inhibition of tumor growth; for inhibition in vivo at 1100 µmol/kg: 1.1 mmole/kg/day × 7, p.o.; for inhibition in vivo at 2200 µmol/kg: 2.2 mmole/kg/day × 7, p.o.; for inhibition in vivo at 1500 µmol/kg: 1.5 mmole/kg/day × 7, p.o.
Experimental: as §5, §6

With `C[C@H]1O[C@@H](n2cc(F)c(N)nc2=O)[C@H](O)[C@@H]1O` [5'-deoxy-5-fluorocytidine] the “Therapeutic index (EDmax/ED50), UV 2237” value (UV 2237 fibrosarcoma) was 1.0, the “Therapeutic index (EDmax/ED50), S180” value (Sarcoma 180 [1]) was 2.0 and the “Therapeutic index (EDmax/ED50), Meth A” value (Meth A fibrosarcoma [2]) was 1.2.

In the case of `C[C@H]1O[C@@H](n2cc(F)c(=O)[nH]c2=O)[C@H](O)[C@@H]1O` [5'-deoxy-5-fluorouridine, reference compound], the diarrhea [3] is reported as “diarrhea, which is the dose limiting factor”, the “Inhibition of tumor growth” value (Meth A fibrosarcoma [4]; 0.4 mmole/kg/day × 7) is reported as 34% and the “Inhibition of tumor growth” value (Meth A fibrosarcoma [4]; 0.8 mmole/kg/day × 7) is reported as 31%. The “Inhibition of tumor growth” value (Meth A fibrosarcoma [4]; 1.5 mmole/kg/day × 7) was 66%, the “Inhibition of tumor growth” value (Meth A fibrosarcoma [4]; 3.0 mmole/kg/day × 7) was “toxic” and the “Therapeutic index (EDmax/ED50), UV 2237” value (UV 2237 fibrosarcoma) was 1.6. The “Therapeutic index (EDmax/ED50), S180” value (Sarcoma 180 [1]) was 2.4, the “Therapeutic index (EDmax/ED50), Meth A” value (Meth A fibrosarcoma [2]) was 1.1 and the “Therapeutic index (toxic dose/ED50): 50% Thymus Shrinkage (C)” value (Lewis lung carcinoma) was 5-10. For the same compound, the “Therapeutic index (toxic dose/ED50): 50% reduction No. of bone marrow cells (D)” value (Lewis lung carcinoma) was 5-10 and the “Therapeutic index (toxic dose/ED50): Max. Dose causing no diarrhea (A)” value (Lewis lung carcinoma) was 5.

For `O=c1[nH]cc(F)c(=O)[nH]1` [5-fluorouracil], the “major and dose limiting toxicities” value [5] is given as “cause intestinal toxicities and immunosuppressive toxicities”.

For `CCCC(=O)Nc1nc(=O)n([C@@H]2O[C@H](C)[C@@H](O)[C@H]2O)cc1F` [Example 1, N^4-butyryl-5'-deoxy-5-fluorocytidine], the LD50 (in vivo) was greater than 2000 mg/kg, the inhibition in vivo at 1500 µmol/kg (Meth A fibrosarcoma [6]) was 50% and the inhibition in vivo at 3000 µmol/kg (Meth A fibrosarcoma [6]) was 72%. The inhibition in vivo at 1100 µmol/kg (Sarcoma 180 [7]) was 56%, the inhibition in vivo at 2200 µmol/kg (Sarcoma 180 [7]) was 83% and the “Therapeutic index (EDmax/ED50), UV 2237” value (UV 2237 fibrosarcoma) was 4.8. The “Therapeutic index (EDmax/ED50), S180” value (Sarcoma 180 [1]) was 2.3, the “Therapeutic index (EDmax/ED50), Meth A” value (Meth A fibrosarcoma [2]) was 2.0 and the “Therapeutic index (toxic dose/ED50): 50% Thymus Shrinkage (C)” value (Lewis lung carcinoma) was 11.3. The “Therapeutic index (toxic dose/ED50): 50% reduction No. of bone marrow cells (D)” value (Lewis lung carcinoma) was 10.7 and the “Therapeutic index (toxic dose/ED50): Max. Dose causing no diarrhea (A)” value (Lewis lung carcinoma) was greater than 13.

In the case of `COc1cc(C(=O)Nc2nc(=O)n([C@@H]3O[C@H](C)[C@@H](O)[C@H]3O)cc2F)cc(OC)c1OC` [Example 3, 5'-deoxy-5-fluoro-N^4-(3,4,5-trimethoxybenzoyl)cytidine], the diarrhea [3] is reported as “did not cause diarrhea”, the “toxicity compared with 5'-deoxy-5-fluorouridine” value ([3]; words) is reported as “less toxic than 5'-deoxy-5-fluorouridine” and the “Inhibition of tumor growth” value (Meth A fibrosarcoma [4]; 0.4 mmole/kg/day × 7) is reported as -27%. The “Inhibition of tumor growth” value (Meth A fibrosarcoma [4]; 0.8 mmole/kg/day × 7) was 20%, the “Inhibition of tumor growth” value (Meth A fibrosarcoma [4]; 1.5 mmole/kg/day × 7) was 86% and the “Inhibition of tumor growth” value (Meth A fibrosarcoma [4]; 3.0 mmole/kg/day × 7) was 79%. For the same compound, the “antitumor activity compared with 5'-deoxy-5-fluorouridine” value (Meth A fibrosarcoma [4]; words) was “more potent in the antitumor activity”, the inhibition in vivo at 1500 µmol/kg (Meth A fibrosarcoma [6]) was 86% and the inhibition in vivo at 3000 µmol/kg (Meth A fibrosarcoma [6]) was 79%.

With `CCCCCCCC(=O)Nc1nc(=O)n([C@@H]2O[C@H](C)[C@@H](O)[C@H]2O)cc1F` [Example 5, 5'-deoxy-5-fluoro-N^4-octanoylcytidine] the LD50 (in vivo) was greater than 2000 mg/kg, the inhibition in vivo at 1100 µmol/kg (Sarcoma 180 [7]) was 62% and the inhibition in vivo at 2200 µmol/kg (Sarcoma 180 [7]) was 82%.

With `CC(C)C(=O)Nc1nc(=O)n([C@@H]2O[C@H](C)[C@@H](O)[C@H]2O)cc1F` [Example 9, 5'-deoxy-5-fluoro-N^4-isobutyrylcytidine] the LD50 (in vivo) was greater than 2000 mg/kg, the inhibition in vivo at 1400 µmol/kg (Sarcoma 180 [7]; 1.4 mmole/kg/day × 7, p.o.) was 76% and the inhibition in vivo at 2700 µmol/kg (Sarcoma 180 [7]; 2.7 mmole/kg/day × 7, p.o.) was 96%.

`COc1ccc(C(=O)Nc2nc(=O)n([C@@H]3O[C@H](C)[C@@H](O)[C@H]3O)cc2F)cc1` [Example 24] gave an LD50 (in vivo) greater than 2000 mg/kg, an inhibition in vivo at 1500 µmol/kg (Sarcoma 180 [7]) of 63% and an inhibition in vivo at 3000 µmol/kg (Sarcoma 180 [7]; 3.0 mmole/kg/day × 7, p.o.) of 94%.

`C[C@H]1O[C@@H](n2cc(F)c(NC(=O)c3cccnc3)nc2=O)[C@H](O)[C@@H]1O` [Example 34] gave an LD50 (in vivo) greater than 2000 mg/kg, an inhibition in vivo at 1300 µmol/kg (Meth A fibrosarcoma [6]; 1.3 mmole/kg/day × 7, p.o.) of 75% and an inhibition in vivo at 2600 µmol/kg (Meth A fibrosarcoma [6]; 2.6 mmole/kg/day × 7, p.o.) of 92%.

In the case of `C[C@H]1O[C@@H](n2cc(F)c(NC(=O)OCc3ccccc3)nc2=O)[C@H](O)[C@@H]1O` [Example 42, N^4-(benzyloxycarbonyl)-5'-deoxy-5-fluorocytidine], the inhibition in vivo at 500 µmol/kg (Sarcoma 180 [7]; 0.5 mmole/kg/day × 7, p.o.) is reported as 0% and the inhibition in vivo at 1500 µmol/kg (Sarcoma 180 [7]) is reported as 36%.

`CCCCC(=O)Nc1nc(=O)n([C@@H]2O[C@H](C)[C@@H](O)[C@H]2O)cc1F` [Example 46, 5'-deoxy-5-fluoro-N^4-valerylcytidine] gave an LD50 (in vivo) greater than 2000 mg/kg, an inhibition in vivo at 1500 µmol/kg (Meth A fibrosarcoma [6]) of 51% and an inhibition in vivo at 3000 µmol/kg (Meth A fibrosarcoma [6]) of 66%.

Work on `CC(C)CC(=O)Nc1nc(=O)n([C@@H]2O[C@H](C)[C@@H](O)[C@H]2O)cc1F` [Example 47, 5'-deoxy-5-fluoro-N^4-isovalerylcytidine] yielded an LD50 (in vivo) greater than 2000 mg/kg, an inhibition in vivo at 1500 µmol/kg (Meth A fibrosarcoma [6]) of 29% and an inhibition in vivo at 3000 µmol/kg (Meth A fibrosarcoma [6]) of 59%.
